The test system of series [1] is L. amazonensis promastigote form parasites. Description: L. amazonensis promastigote viability. The format is cell-based. Particulars: SI = IMR90 EC50/parasite EC50.
Series [2] is described as follows: Mammalian cytotoxicity on non-immortalized IMR90 cells. It counts as cell-based. Particulars: human.
Series [3] concerns T. brucei bloodstream form (BSF). Description: T. brucei bloodstream form parasite viability. The format is cell-based, Trypanosoma brucei. Particulars: SI = IMR90 EC50/parasite EC50.
Series [4] deals with C/EBP-homologous protein (CHOP). Particulars: cited from earlier work.
Series [5] concerns T. brucei BSF 90-13 parasites. Description: Annexin V-FITC labeling. It counts as cell-based. Particulars: BSF trypanosomes, 6 h exposure at compound's EC50 value; control line 463.

The structures appear in SMILES notation.

For `O=C(Nc1ccc(S(=O)(=O)N2CCC3(CCCCC3)CC2)cc1)c1ccc([N+](=O)[O-])s1` [Compound 24], in series [1], the “L. amazonensis selectivity index, SI” value was more than 250. For the same compound, the EC50 (usually the midpoint of the concentration-response curve) in series [2] was more than 25 µM. For the same compound, in series [3], the “T. brucei selectivity index, SI” value is more than 1250.

On to `O=C(Nc1ccc(S(=O)(=O)N2CCCCC2)cc1)c1ccc([N+](=O)[O-])o1` [Compound 2], for which the “L. amazonensis selectivity index, SI” value in series [1] is more than 2. In series [2], this compound had an EC50 of more than 25 µM. In addition, the “T. brucei selectivity index, SI” value in series [3] is more than 114.

Regarding `CC1(C)CCN(S(=O)(=O)c2cccc(NC(=O)c3ccco3)c2)CC1` [Compound 27], the “L. amazonensis selectivity index, SI” value in series [1] is more than 21. Also, in series [2], the EC50 is more than 25 µM. Further, the “T. brucei selectivity index, SI” value in series [3] is more than 5.

`O=C(Nc1ccc(S(=O)(=O)N2CCOCC2)cc1)c1ccccc1` [Compound 16] displayed a half-maximal effective concentration (EC50) in series [2] of more than 25 µM.

With `O=C(Nc1ccc(S(=O)(=O)N2CCOCC2)cc1)c1ccc([N+](=O)[O-])s1` [Compound 21], the “L. amazonensis selectivity index, SI” value in series [1] is on record as more than 19. For the same compound, the EC50 in series [2] is more than 25 µM. Besides, in series [3], the “T. brucei selectivity index, SI” value is listed as more than 417.

Turning to `O=C(Nc1ccc(S(=O)(=O)N2CCC3(CCCCC3)CC2)cc1)c1ccc([N+](=O)[O-])o1` [Compound 6], the “L. amazonensis selectivity index, SI” value in series [1] is more than 17. The EC50 in series [2] is more than 25 µM. Also, in series [3], the “T. brucei selectivity index, SI” value is listed as more than 833.

As to `N=C1CCN(S(=O)(=O)c2ccc(NC(=O)c3ccc([N+](=O)[O-])o3)cc2)CC1` [Compound 10], the “L. amazonensis selectivity index, SI” value in series [1] is on record as more than 2. The EC50 in series [2] was more than 25 µM. Besides, in series [3], the “T. brucei selectivity index, SI” value is reported as more than 34.

As to `O=C(Nc1ccc(S(=O)(=O)N2CCC(Cl)CC2)cc1)c1ccc([N+](=O)[O-])o1` [Compound 8], in series [1], the “L. amazonensis selectivity index, SI” value is more than 3. This compound also registered an EC50 in series [2] of more than 25 µM. In addition, in series [3], the “T. brucei selectivity index, SI” value is recorded as more than 313.

For the compound `O=C(Nc1ccc(S(=O)(=O)c2ccccc2)cc1)c1ccc([N+](=O)[O-])o1` [Compound 13], the “L. amazonensis selectivity index, SI” value in series [1] is more than 6. In series [2], this compound had an EC50 of more than 25 µM. Further, in series [3], the “T. brucei selectivity index, SI” value is more than 227.

Take `CC1(C)CCN(S(=O)(=O)c2ccc(NC(=O)c3ccc([N+](=O)[O-])s3)cc2)CC1` [Compound 22]: in series [1], the “L. amazonensis selectivity index, SI” value is more than 250. In series [2], this compound registered an EC50 of more than 25 µM. The “T. brucei selectivity index, SI” value in series [3] is listed as more than 2500.

Regarding `CC1(C)CCN(S(=O)(=O)c2ccc(NC(=O)c3ccc([N+](=O)[O-])o3)cc2)CC1` [Compound 4], the “L. amazonensis selectivity index, SI” value in series [1] is given as more than 89. The same compound displayed an EC50 in series [2] of more than 25 µM. The “T. brucei selectivity index, SI” value in series [3] was more than 278.

For `CC(C)(C)C1CCN(S(=O)(=O)c2ccc(NC(=O)c3ccc([N+](=O)[O-])s3)cc2)CC1` [Compound 23], the “L. amazonensis selectivity index, SI” value in series [1] is recorded as more than 250. Besides, the concentration for a half-maximal effect (EC50) in series [2] was more than 25 µM. Further, the “T. brucei selectivity index, SI” value in series [3] was more than 833.

`O=C(Nc1ccc(S(=O)(=O)N2CCOCC2)cc1)c1ccco1` [Compound 14] showed an EC50 in series [2] of more than 25 µM.

Take `CC1(C)CCN(S(=O)(=O)c2ccc(NC(=O)c3cccc([N+](=O)[O-])c3)cc2)CC1` [Compound 19]: the “L. amazonensis selectivity index, SI” value in series [1] is more than 2. Also, the EC50 in series [2] was more than 25 µM. Also, the “T. brucei selectivity index, SI” value in series [3] is more than 4. The “mammalian CHOP activity” value in series [4] is “no mammalian CHOP activity”.

On to `O=C(Nc1ccc(S(=O)(=O)N2CCOCC2)cc1)c1ccc([N+](=O)[O-])cc1` [Compound 18], for which the EC50 in series [2] was more than 25 µM.

As for `O=C(Nc1ccc(S(=O)(=O)N2CCC(F)CC2)cc1)c1ccc([N+](=O)[O-])o1` [Compound 9], the “L. amazonensis selectivity index, SI” value in series [1] is listed as more than 3. Besides, the EC50 in series [2] was more than 25 µM. Besides, the “T. brucei selectivity index, SI” value in series [3] is reported as more than 60.

In series [2], `Cc1ccc(C(=O)Nc2ccc(S(=O)(=O)N3CCOCC3)cc2)o1` [Compound 17] returned an EC50 of more than 25 µM.

On to `CC(C)(C)C1CCN(S(=O)(=O)c2ccc(NC(=O)c3ccc([N+](=O)[O-])o3)cc2)CC1` [Compound 5], for which, in series [1], the “L. amazonensis selectivity index, SI” value is reported as more than 18. Further, the “Annexin-V labeling, relative fluorescence median signal” value in series [5] worked out at 1225. The EC50 in series [2] is more than 25 µM. In series [3], the “T. brucei selectivity index, SI” value is more than 833.

In the case of `CC1CCN(S(=O)(=O)c2ccc(NC(=O)c3ccc([N+](=O)[O-])o3)cc2)CC1` [Compound 3], the “L. amazonensis selectivity index, SI” value in series [1] was more than 3. Moreover, in series [2], the EC50 was more than 25 µM. In addition, in series [3], the “T. brucei selectivity index, SI” value is given as more than 208.

In the case of `CC1(C)CCN(S(=O)(=O)c2cccc(NC(=O)c3cccc([N+](=O)[O-])c3)c2)CC1` [Compound 28], in series [1], the “L. amazonensis selectivity index, SI” value is given as more than 8. This compound also displayed an EC50 in series [2] of more than 25 µM. Besides, the “T. brucei selectivity index, SI” value in series [3] is on record as more than 2.

Take `CC1(C)CCN(S(=O)(=O)c2cccc(NC(=O)c3ccc([N+](=O)[O-])s3)c2)CC1` [Compound 25]: the “L. amazonensis selectivity index, SI” value in series [1] was more than 19. In series [2], this compound registered an EC50 of more than 25 µM. Further, the “T. brucei selectivity index, SI” value in series [3] was more than 556.

Consider `O=C(Nc1ccc(S(=O)(=O)N2CCOCC2)cc1)c1ccc([N+](=O)[O-])o1` [Compound 1], for which the “L. amazonensis selectivity index, SI” value in series [1] is more than 8. This compound showed an EC50 in series [2] of more than 25 µM. For the same compound, the “T. brucei selectivity index, SI” value in series [3] was more than 54.

In the case of `CC1(C)CCN(S(=O)(=O)c2ccc(NC(=O)c3ccc(C(F)(F)F)o3)cc2)CC1` [Compound 20], in series [1], the “L. amazonensis selectivity index, SI” value is reported as more than 2. The EC50 in series [2] is more than 25 µM. Moreover, in series [3], the “T. brucei selectivity index, SI” value is recorded as more than 3. In addition, the “mammalian CHOP activity” value in series [4] is “no mammalian CHOP activity”.

Compound `O=C(Nc1ccc(S(=O)(=O)N2CCOCC2)cc1)c1cccs1` [Compound 15] displayed an EC50 in series [2] of more than 25 µM.

With `O=C(Nc1ccc(S(=O)(=O)C2CCCCC2)cc1)c1ccc([N+](=O)[O-])o1` [Compound 11], the “L. amazonensis selectivity index, SI” value in series [1] was more than 16. This compound also returned an EC50 in series [2] of more than 25 µM. Also, in series [3], the “T. brucei selectivity index, SI” value is more than 51.

Consider `O=C(Nc1cccc(S(=O)(=O)N2CCOCC2)c1)c1ccc([N+](=O)[O-])o1` [Compound 29], for which the “L. amazonensis selectivity index, SI” value in series [1] is more than 28. In addition, the EC50 in series [2] is more than 25 µM. In addition, in series [3], the “T. brucei selectivity index, SI” value is given as more than 17.

Take `O=C(Nc1ccc(S(=O)(=O)C2=CCOC=C2)cc1)c1ccc([N+](=O)[O-])o1` [Compound 12]: the “L. amazonensis selectivity index, SI” value in series [1] is more than 83. Further, in series [2], the EC50 was more than 25 µM. Moreover, the “T. brucei selectivity index, SI” value in series [3] is reported as more than 47.

With `O=C(Nc1ccc(S(=O)(=O)N2CCC(O)CC2)cc1)c1ccc([N+](=O)[O-])o1` [Compound 7], the “L. amazonensis selectivity index, SI” value in series [1] is given as more than 6. In series [2], this compound registered an EC50 of more than 25 µM. The “T. brucei selectivity index, SI” value in series [3] is given as more than 81.

Take `CC1(C)CCN(S(=O)(=O)c2cccc(NC(=O)c3ccc([N+](=O)[O-])o3)c2)CC1` [Compound 26]: the “L. amazonensis selectivity index, SI” value in series [1] is more than 250. In series [2], this compound displayed an EC50 of more than 25 µM. Further, the “T. brucei selectivity index, SI” value in series [3] is more than 78.

(Values after paper PMC5296257 (Bioorganic & medicinal chemistry letters, 2017).)
